# From patent US8404708B2, “Dual NK1/NK3 receptor antagonists” (Hoffmann-La Roche Inc., priority 2004, dated 2013)
# Key:
# [1] = biological target: T1, Recombinant human NK3 (hNK3) receptor (Homo sapiens, UniProt P29371); assay: NK3 receptor binding, [3H]SR142801 displacement, membrane preparations; conditions: for Ki: second value of the cell NK1/NK3, read-out: pKi NK3 (converted)
# T1 construct: expressed in transfected cells
# T1 sequence (P29371 1-465): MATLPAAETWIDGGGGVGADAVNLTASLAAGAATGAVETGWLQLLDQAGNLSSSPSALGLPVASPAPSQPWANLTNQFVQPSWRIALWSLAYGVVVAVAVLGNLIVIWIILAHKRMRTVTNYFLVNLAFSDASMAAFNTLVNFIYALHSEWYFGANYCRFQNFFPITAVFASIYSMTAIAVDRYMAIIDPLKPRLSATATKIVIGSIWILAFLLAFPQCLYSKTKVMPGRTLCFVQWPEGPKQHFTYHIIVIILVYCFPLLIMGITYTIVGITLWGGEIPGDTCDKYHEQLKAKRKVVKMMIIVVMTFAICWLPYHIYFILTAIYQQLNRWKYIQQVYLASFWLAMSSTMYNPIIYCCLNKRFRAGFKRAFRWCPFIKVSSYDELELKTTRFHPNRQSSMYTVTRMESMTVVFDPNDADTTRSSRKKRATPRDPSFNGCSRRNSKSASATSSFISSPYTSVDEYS
# Summary of the method: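 Incubation ran 90 min at room temperature in 50 mM Tris-HCl pH 7.4 with 0.1% BSA, 4 mM MnCl2 and 1 μM phosphoramidon, using about 2.5 μg hNK3 membrane protein per well. Nonspecific binding was defined with 10 μM SB222200, and bound radioactivity was collected on PEI-soaked GF/C filters for scintillation counting.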
# [2] = biological target: human NK1 receptor (Homo sapiens, UniProt P25103); assay: NK1 receptor binding, [3H]substance P displacement, CHO cell membranes; conditions: first value of the cell NK1/NK3; read-out: pKi NK1 (converted)
# [3] = phase II trial, cited from earlier work
# Sequence of human NK1 receptor (P25103 whole entry): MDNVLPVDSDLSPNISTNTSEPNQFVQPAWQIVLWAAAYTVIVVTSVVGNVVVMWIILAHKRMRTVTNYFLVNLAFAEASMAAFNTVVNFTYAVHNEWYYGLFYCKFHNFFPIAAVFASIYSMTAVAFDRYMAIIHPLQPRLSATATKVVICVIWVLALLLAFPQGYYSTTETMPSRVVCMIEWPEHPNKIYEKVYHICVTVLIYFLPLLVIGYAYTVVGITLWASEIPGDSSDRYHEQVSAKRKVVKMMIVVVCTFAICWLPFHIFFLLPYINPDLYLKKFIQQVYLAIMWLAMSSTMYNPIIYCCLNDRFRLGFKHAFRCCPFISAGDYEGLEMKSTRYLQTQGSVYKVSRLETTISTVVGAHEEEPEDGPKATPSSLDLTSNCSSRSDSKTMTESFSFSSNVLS
Compound,Ki [2],Ki [1],further results
"CN(C(=O)C(C)(C)c1cc(C(F)(F)F)cc(C(F)(F)F)c1)c1cnc(NCCO)cc1-c1ccccc1Cl [Example 67, 2-(3,5-Bis-trifluoromethyl-phenyl)-N-[4-(2-chloro-phenyl)-6-(2-hydroxy-ethylamino)-pyridin-3-yl]-N-methyl-isobutyramide]",–,–,"pKi NK3 ([1]; second value of the cell pKi NK1/NK3, hNK3 receptor, [3H]SR142801): 7.94; melting point: 117 to 118 °C"
"CC(=O)NC[C@@H]1CCCN1c1cc(-c2ccc(F)cc2C)c(N(C)C(=O)C(C)(C)c2cc(C(F)(F)F)cc(C(F)(F)F)c2)cn1 [Example 302, (S)-N-[6-[2-(Acetylamino-methyl)-pyrrolidin-1-yl]-4-(4-fluoro-2-methyl-phenyl)-pyridin-3-yl]-2-(3,5-bis-trifluoromethyl-phenyl)-N-methyl-isobutyramide]",2.51 nM,20.4 nM,–
"Cc1cc(F)ccc1-c1cc(N2CCC[C@H]2COC(=O)N(C)C)ncc1N(C)C(=O)C(C)(C)c1cc(C(F)(F)F)cc(C(F)(F)F)c1 [Example 303, (S)-Dimethyl-carbamic Acid 1-[5-{[2-(3,5-bis-trifluoromethyl-phenyl)-2-methyl-propionyl]-methyl-amino}-4-(4-fluoro-2-methyl-phenyl)-pyridin-2-yl]-pyrrolidin-2-ylmethyl Ester]",1.32 nM,15.1 nM,–
"CC(=O)N(C)C1(c2ccccc2)CCN(CCC[C@]2(c3ccc(Cl)c(Cl)c3)CCCN(C(=O)c3ccccc3)C2)CC1 [SR 142,801, Osanetant]",–,–,"activity on positive symptoms of schizophrenia ([3]; altered behavior, delusion, hallucinations, extreme emotions, excited motor activity, incoherent speech): active; activity in the treatment of negative symptoms of schizophrenia ([3]; depression, anhedonia, social isolation, memory and attention deficits): inactive"
